Measured values: patent US20050197350A1, “Novel quinoline, tetrahydroquinazoline, and pyrimidine derivatives and methods of treatment related to the use thereof” (TAISHO PHARMACEUTICAL CO., LTD., priority 2003, published 2005)
Structures can show the parent of a compound that is named as a salt. Where two headings read alike, the source gives them in different places.

Target: MCH receptor (Homo sapiens, UniProt Q99705)
Assay: High throughput functional screening FLIPR/FDSS6000 (intracellular Ca2+ evoked by MCH)
Assay type: cell-based
Conditions: FLIPR/FDSS, antagonist activity vs 50 nM MCH, class by percent of control at 10^−7 M or IC50, read-out: class
Method in brief: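 For antagonist testing, compound-treated cells (30 min, 37 °C) were stimulated with 50 nM MCH and intracellular Ca2+ followed by Fluo4 fluorescence on FLIPR/FDSS6000. Receptor was a constitutively active, non-endogenous MCH receptor; dye loading 4 μM Fluo4-AM, 1 h, 37 °C.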

IC50 [nM]	IC50 (table after the classification) [nM]	Structure (SMILES)
< 50		Cc1cc(N[C@H]2CC[C@@H](C(=O)N[C@@H](C)c3ccccc3C(F)(F)F)CC2)nc2ccccc12 [Example 3314, cis-4-[(4-methylquinolin-2-yl)amino]-N-{(1S)-1-[2-(trifluoromethyl)phenyl]ethyl}cyclohexanecarboxamide]
	< 50	Cc1cc(N[C@H]2CC[C@@H](NC(=O)c3ccc(F)cc3F)CC2)nc2ccccc12 [Example 3163, 2,4-Difluoro-N-[cis-4-(4-methyl-quinolin-2-ylamino)-cyclohexyl]-benzamide hydrochloride]
	< 50	CN(C)c1ccnc(N[C@H]2CC[C@@H](CNC(=O)Nc3cccc(Cl)c3Cl)CC2)n1 [Example 3222, 1-(2,3-Dichloro-phenyl)-3-[cis-4-(4-dimethylamino-pyrimidin-2-ylamino)-cyclohexylmethyl]-urea hydrochloride]
	< 50	O=C(N[C@H]1CC[C@@H](Nc2ccc3ccccc3n2)CC1)c1csc([N+](=O)[O-])c1 [Example 3036, 5-Nitro-thiophene-3-carboxylic acid [cis-4-(quinolin-2-ylamino)-cyclohexyl]-amide hydrochloride]
	< 50	O=C(N[C@H]1CC[C@@H](Nc2ccc3ccccc3n2)CC1)c1cccnc1Oc1ccccc1 [Example 3032, 2-Phenoxy-N-[cis-4-(quinolin-2-ylamino)-cyclohexyl]-nicotinamide hydrochloride]
	> 200	Cc1cc(C)nc(N[C@H]2CC[C@@H](NC(=O)c3ccc(F)c(F)c3)CC2)n1 [Example 3142, N-[cis-4-(4,6-Dimethyl-pyrimidin-2-ylamino)-cyclohexyl]-3,4-difluoro-benzamide hydrochloride]
	> 200	CN(C)c1cc(Cl)nc(N[C@H]2CC[C@@H](NC(=O)c3cccnc3Oc3ccccc3)CC2)n1 [Example 3233, N-[cis-4-(6-Chloro-4-dimethylamino-pyrimidin-2-ylamino)-cyclohexyl]-2-phenoxy-nicotinamide hydrochloride]
	50 to 200	CN(C)c1nc(N[C@H]2CC[C@@H](CNC(=O)c3ccc(F)c(F)c3)CC2)nc2c1CCCC2 [Example 3195, N-[cis-4-(4-Dimethylamino-5,6,7,8-tetrahydro-quinazolin-2-ylamino)-cyclohexylmethyl]-3,4-difluoro-benzamide hydrochloride]
	< 50	COC(=O)c1cccc(C(=O)N[C@H]2CC[C@@H](Nc3cc(C)c4ccccc4n3)CC2)c1 [Example 3174, N-[cis-4-(4-Methylquinolin-2-ylamino)-cyclohexyl]-isophthalamic acid-methyl ester hydrochloride]
	50 to 200	CNc1ccnc(N[C@H]2CC[C@@H](NC(=O)c3ccc(F)c(Cl)c3)CC2)n1 [Example 3224, 3-Chloro-4-fluoro-N-[cis-4-(4-methylamino-pyrimidin-2-ylamino)-cyclohexyl]-benzamide hydrochloride]
	> 200	O=C(N[C@H]1CC[C@@H](Nc2cc(C(F)(F)F)c3ccccc3n2)CC1)c1ccc(F)c(F)c1 [Example 3237, 3,4-Difluoro-N-[cis-4-(4-trifluoromethyl-quinolin-2-yl)-amino-cyclohexyl]-benzamide hydrochloride]
	< 50	O=C(N[C@H]1CC[C@@H](Nc2ccc3ccccc3n2)CC1)c1cccnc1Oc1ccc(F)c(F)c1 [Example 3055, 2-(3,4-Difluoro-phenoxy)-N-[cis-4-(quinolin-2-ylamino)-cyclohexyl]-nicotinamide hydrochloride]
50 to 200		Cc1cnc(N[C@H]2CC[C@@H](NC(=O)Nc3cc(C(F)(F)F)cc(C(F)(F)F)c3)CC2)nc1N(C)C [Example 3334, N-[3,5-bis(trifluoromethyl)phenyl]-N′-(cis-4-{[4-(dimethylamino)-5-methylpyrimidin-2-yl]amino}cyclohexyl)urea]
	50 to 200	Cc1cc(N[C@H]2CC[C@@H](NC(=O)c3ccccc3F)CC2)nc2ccccc12 [Example 3171, 2-Fluoro-N-[cis-4-(4-methyl-quinolin-2-ylamino)-cyclohexyl]-benzamide hydrochloride]
	< 50	CN(C)c1ccnc(N[C@H]2CC[C@@H](NC(=O)c3ccc(-c4ccc(Cl)cc4)o3)CC2)n1 [Example 3199, 5-(4-Chloro-phenyl)-furan-2-carboxylic acid [cis-4-(4-dimethylamino-pyrimidin-2-ylamino)-cyclohexyl]-amide hydrochloride]
< 50		Cc1cnc(N[C@H]2CC[C@@H](C(=O)N[C@@H](C)c3ccc(OC(F)(F)F)cc3)CC2)nc1N(C)C [Example 3302, cis-4-{[4-(dimethylamino)-5-methylpyrimidin-2-yl]amino}-N-{(1S)-1-[4-(trifluoromethoxy)phenyl]ethyl}-cyclohexanecarboxamide]
	> 200	Cc1cc(N[C@H]2CC[C@@H](NC(=O)c3cccnc3O)CC2)nc2ccccc12 [Example 3173, 2-Hydroxy-N-[cis-4-(4-methyl-quinolin-2-ylamino)-cyclohexyl]-nicotinamide hydrochloride]

IC50 [nM]	IC50 (table after the classification) [nM]	Structure (SMILES)
	50 to 200	Cc1cc(N[C@H]2CC[C@@H](CNC(=O)c3cccnc3Oc3ccccc3)CC2)nc2ccccc12 [Example 3105, N-[cis-4-(4-Methylquinolin-2-ylamino)-cyclohexylmethyl]-2-phenoxy-nicotinamide hydrochloride]
	< 50	Cc1cc(N[C@H]2CC[C@@H](NC(=O)c3ccc(Cl)nc3)CC2)nc2ccccc12 [Example 3175, 6-Chloro-N-[cis-4-(4-methyl-quinolin-2-ylamino)-cyclohexyl]-nicotinamide hydrochloride]
	50 to 200	Cc1cc(N[C@H]2CC[C@@H](NC(=O)c3cccc(F)c3F)CC2)nc2ccccc12 [Example 3162, 2,3-Difluoro-N-[cis-4-(4-methyl-quinolin-2-ylamino)-cyclohexyl]-benzamide hydrochloride]
> 200		Cc1cnc(N[C@H]2CC[C@@H](NCC(=O)c3ccc(Br)cc3)CC2)nc1N(C)C [Example 3262, 1-(4-bromophenyl)-2-[(cis-4-{[4-(dimethylamino)-5-methylpyrimidin-2-yl]amino}cyclohexyl)amino]ethanone]
	> 200	CN(C)c1ccnc(N[C@H]2CC[C@@H](NC(=O)c3cc(Cl)ccn3)CC2)n1 [Example 3213, 4-Chloro-pyridine-2-carboxylic acid [cis-4-(4-dimethylamino-pyrimidin-2-ylamino)-cyclohexyl]-amide hydrochloride]
	50 to 200	CNc1cc(N[C@H]2CC[C@@H](NCCc3ccc(Br)cc3OC(F)(F)F)CC2)nc2ccccc12 [Example 2, N^2-{cis-4-[2-(4-Bromo-2-trifluoromethoxy-phenyl)-ethylamino]-cyclohexyl}-N^4-methyl-quinoline2,4-diamine dihydrochloride]
	< 50	CN(C)c1ccnc(N[C@H]2CC[C@@H](CNC(=O)Cc3c(Cl)ccc(Cl)c3Cl)CC2)n1 [Example 3220, N-[cis-4-(4-Dimethylamino-pyrimidin-2-ylamino)-cyclohexylmethyl]-2-(2,3,6-trichloro-phenyl)-acetamide hydrochloride]
	< 50	Cc1cc(N[C@H]2CC[C@@H](NC(=O)COc3ccc(Cl)c(Cl)c3)CC2)nc2ccccc12 [Example 3101, 2-(3,4-Dichloro-phenoxy)-N-[cis-4-(4-methyl-quinolin-2-ylamino)-cyclohexyl]-acetamide hydrochloride]
	> 200	CN(C)c1ccnc(N[C@H]2CC[C@@H](NC(=O)c3ccncc3)CC2)n1 [Example 3210, N-[cis-4-(4-Dimethylamino-pyrimidin-2-ylamino)-cyclohexyl]-isonicotinamide dihydrochloride]
	< 50	CN(C)c1nc(N[C@H]2CC[C@@H](NC(=O)c3ccc(F)c(F)c3)CC2)nc2c1CCCC2 [Example 3192, N-[cis-4-(4-dimethylamino-5,6,7,8-tetrahydro-quinazolin-2-ylamino)-cyclohexyl]-3,4-difluoro-benzamide hydrochloride]
	> 200	COc1cc(OC)nc(N[C@H]2CC[C@@H](NC(=O)c3ccc(F)c(F)c3)CC2)n1 [Example 3132, N-[cis-4-(4,6-Dimethoxy-pyrimidin-2-ylamino)-cyclohexyl]-3,4-difluoro-benzamide hydrochloride]
	> 200	COc1ccnc(N[C@H]2CC[C@@H](NC(=O)c3cccnc3Oc3ccccc3)CC2)n1 [Example 3134, N-[cis-4-(4-Methoxy-pyrimidin-2-ylamino)-cyclohexyl]-2-phenoxy-nicotinamide hydrochloride]
> 200		Cc1cc(N(C)C)nc(N[C@H]2CC[C@@H](NC(=O)c3cccnc3S(=O)(=O)c3ccccc3C(F)(F)F)CC2)n1 [Example 3381, N-(cis-4-{[4-(dimethylamino)-6-methylpyrimidin-2-yl]amino}cyclohexyl)-2-{[2-(trifluoromethyl)phenyl]-sulfonyl}nicotinamide]
> 200		Cc1cc(N(C)C)nc(N[C@H]2CC[C@@H](NC(=O)c3cccnc3S(=O)(=O)c3ccc(Cl)cc3)CC2)n1 [Example 3371, 2-[(4-chlorophenyl)sulfonyl]-N-(cis-4-{[4-(dimethylamino)-6-methylpyrimidin-2-yl]amino}cyclohexyl)nicotinamide]
> 200		Cc1cnc(N[C@H]2CC[C@@H](NC(=O)COc3cc(C(F)(F)F)ncn3)CC2)nc1N(C)C [Example 3357, N-(cis-4-{[4-(dimethylamino)-5-methylpyrimidin-2-yl]amino}cyclohexyl)-2-{[6-(trifluoromethyl)pyrimidin-4-yl]oxy}acetamide]
	> 200	CN(C)c1ccnc(N[C@H]2CC[C@@H](NC(=O)c3ccccn3)CC2)n1 [Example 3208, Pyridine-2-carboxylic acid [cis-4-(4-dimethylamino-pyrimidin-2-ylamino)-cyclohexyl]-amide hydrochloride]
